Laboratory results reported in patent US10612094B2, “Genetic markers for engraftment of human cardiac ventricular progenitor cells” (Procella Therapeutics AB, priority 2016, dated 2020).

Test system: human ventricular muscle organ strips
Assay: Force generation of muscle strips from HVP-derived human muscle organ in response to electric stimulation
Conditions: muscle strips of 5-month graft, p<0.05 compared to control
Text: One of the critical limitations for the utility of hPSCs for studies of human cardiac biology and disease is their lack of maturity and persistence of expression of fetal isoforms. […] Animals were sacrificed and the engrafted kidneys were removed for further analysis. The 5-month human graft was a hemisphere structure with the radius of 0.4 cm (diameter of 0.8 cm). […] In addition, muscle trips taken from our mature human muscle organ generated forces (0.36±0.04 mN) in response to electric stimulation and increased their force generation after treatment with a β-adrenergic agonist isoprenaline (0.51±0.02 mN, p<0.05 compared to control). Taken together, these studies indicate that the HVPs are capable of generating a fully functional, mature human ventricular muscle organ in vivo via a cell autonomous pathway, i.e., without the addition of other cells, genes, matrix proteins, or biomaterials.

CC(C)NCC(O)c1ccc(O)c(O)c1 (stereo not shown) [isoprenaline] was tested, and the “force generation after treatment with β-adrenergic agonist” value was 0.51±0.02 mN.
